Experimental data taken from ChEMBL document CHEMBL1201861, “Genomics of Drug Sensitity in Cancer screening data, Wellcome Trust Sanger Institute”.
pIC50: −log10 of the molar value.

What was measured:
[1] = test system: NUGC-3; test: cells; format: functional, cell-based, Homo sapiens; conditions: Homo sapiens, NUGC-3;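 also: growth inhibition of human NUGC-3 cells, read out with a cell viability assay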
Description: SANGER: Inhibition of human NUGC-3 cell growth in a cell viability assay.

[2] = test system: IGROV-1; test: cells; format: functional, cell-based, Homo sapiens; conditions: Homo sapiens, IGROV-1;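 also: reduction of IGROV-1 cell growth, read out with a viability assay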
Description: SANGER: Inhibition of human IGROV-1 cell growth in a cell viability assay.

[3] = test system: MKN-28; test: cells; format: functional, cell-based, Homo sapiens; conditions: Homo sapiens, MKN-28;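 also: cell viability assay read-out, IC50 reflects suppression of growth of human MKN-28 cells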
Description: SANGER: Inhibition of human MKN28 cell growth in a cell viability assay.

[4] = test system: NCI-H322M; test: cells; format: functional, cell-based, Homo sapiens; conditions: Homo sapiens, NCI-H322M;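 also: cell viability assay measuring inhibition of growth of human NCI-H322M cells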
Description: SANGER: Inhibition of human NCI-H322M cell growth in a cell viability assay.

[5] = test system: SNU-C1; test: cells; format: functional, cell-based, Homo sapiens; conditions: Homo sapiens, SNU-C1;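 also: growth inhibition of SNU-C1 human cells, read out by a cell viability assay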
Description: SANGER: Inhibition of human SNU-C1 cell growth in a cell viability assay.

[6] = test system: SAOS-2; test: cells; format: functional, cell-based, Homo sapiens; conditions: Homo sapiens, SAOS-2;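 also: growth inhibition of human Saos-2 cells determined by a cell viability assay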
Description: SANGER: Inhibition of human Saos-2 cell growth in a cell viability assay.

[7] = test system: G-361; test: cells; format: functional, cell-based, Homo sapiens; conditions: Homo sapiens, G-361
[8] = test system: BHY; test: cells; format: functional, cell-based, Homo sapiens; conditions: Homo sapiens, BHY
Description: SANGER: Inhibition of human BHY cell growth in a cell viability assay.

[9] = test system: TUR; test: cells; format: functional, cell-based, Homo sapiens; conditions: Homo sapiens, TUR
Description: SANGER: Inhibition of human TUR cell growth in a cell viability assay.

[10] = test system: CAL-120; test: cells; format: functional, cell-based, Homo sapiens; conditions: Homo sapiens, CAL-120
Description: SANGER: Inhibition of human CAL-120 cell growth in a cell viability assay.

[11] = test system: GAMG; test: cells; format: functional, cell-based, Homo sapiens; conditions: Homo sapiens, GAMG;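 also: cell growth inhibition measured by a viability assay in the GAMG human cell line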
Description: SANGER: Inhibition of human GAMG cell growth in a cell viability assay.

[12] = test system: TYK-nu; test: cells; format: functional, cell-based, Homo sapiens; conditions: Homo sapiens, TYK-nu
Description: SANGER: Inhibition of human TYK-nu cell growth in a cell viability assay.

[13] = test system: NCI-H1417; test: cells; format: functional, cell-based, Homo sapiens; conditions: Homo sapiens, NCI-H1417;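 also: human NCI-H1417 cells, growth inhibition determined with a cell viability readout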
Description: SANGER: Inhibition of human NCI-H1417 cell growth in a cell viability assay.

[14] = test system: ARH-77; test: cells; format: functional, cell-based, Homo sapiens; conditions: Homo sapiens, ARH-77;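 also: growth inhibition of ARH-77 cells, read out by a cell viability assay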
Description: SANGER: Inhibition of human ARH-77 cell growth in a cell viability assay.

[15] = test system: CAPAN-1; test: cells; format: functional, cell-based, Homo sapiens; conditions: Homo sapiens, CAPAN-1;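 also: growth suppression of CAPAN-1 cells, read out by a cell viability assay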
Description: SANGER: Inhibition of human CAPAN-1 cell growth in a cell viability assay.

[16] = test system: MDA-MB-157; test: cells; format: functional, cell-based, Homo sapiens; conditions: Homo sapiens, MDA-MB-157
Description: SANGER: Inhibition of human MDA-MB-157 cell growth in a cell viability assay.

[17] = test system: TE-441-T; test: cells; format: functional, cell-based, Homo sapiens; conditions: Homo sapiens, TE-441-T
Description: SANGER: Inhibition of human TE-441-T cell growth in a cell viability assay.

[18] = test system: A-427; test: cells; format: functional, cell-based, Homo sapiens; conditions: Homo sapiens, A-427;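 also: growth inhibition of human A-427 cells, read out by a cell viability assay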
Description: SANGER: Inhibition of human A427 cell growth in a cell viability assay.

[19] = test system: DBTRG-05MG; test: cells; format: functional, cell-based, Homo sapiens; conditions: Homo sapiens, DBTRG-05MG;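 also: cell viability assay measuring growth inhibition of human DBTRG-05MG cells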
Description: SANGER: Inhibition of human DBTRG-05MG cell growth in a cell viability assay.

[20] = test system: CHP-212; test: cells; format: functional, cell-based, Homo sapiens; conditions: Homo sapiens, CHP-212
Description: SANGER: Inhibition of human CHP-212 cell growth in a cell viability assay.

[21] = test system: CAL-54; test: cells; format: functional, cell-based, Homo sapiens; conditions: Homo sapiens, CAL-54;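 also: growth inhibition of CAL-54 cells, read out by a viability measurement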
Description: SANGER: Inhibition of human CAL-54 cell growth in a cell viability assay.

[22] = test system: KYSE-520 cell line; test: cells; format: functional, cell-based, Homo sapiens; conditions: Homo sapiens, KYSE-520;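 also: growth inhibition of human KYSE-520 cells, read out with a viability assay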
Description: SANGER: Inhibition of human KYSE-520 cell growth in a cell viability assay.

[23] = test system: CWR22R; test: cells; format: functional, cell-based, Homo sapiens; conditions: Homo sapiens, 22Rv1;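 also: growth inhibition of 22Rv1 cells, read out with a cell viability assay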
Description: SANGER: Inhibition of human 22RV1 cell growth in a cell viability assay.

[24] = test system: RPMI-6666; test: cells; format: functional, cell-based, Homo sapiens; conditions: Homo sapiens, RPMI-6666
Description: SANGER: Inhibition of human RPMI-6666 cell growth in a cell viability assay.

[25] = test system: SU-DHL-1; test: SANGER: Inhibition of human SU-DHL-1 cell growth in a cell viability assay.; format: functional, cell-based; conditions: Homo sapiens, SU-DHL-1
[26] = test system: RPMI 8402; test: SANGER: Inhibition of human RPMI-8402 cell growth in a cell viability assay.; format: functional, cell-based; conditions: Homo sapiens, RPMI 8402; read-out: IC50
[27] = test system: NCI-H1522; test: cells; format: functional, cell-based, Homo sapiens; conditions: Homo sapiens, NCI-H1522;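 also: growth inhibition of NCI-H1522 cells, read out with a cell viability assay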
Description: SANGER: Inhibition of human NCI-H1522 cell growth in a cell viability assay.

[28] = test system: MeWo; test: cells; format: functional, cell-based, Homo sapiens; conditions: Homo sapiens, MeWo;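 also: growth inhibition of MeWo cells, determined by a cell viability readout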
Description: SANGER: Inhibition of human Mewo cell growth in a cell viability assay.

[29] = test system: NCI-H2405; test: cells; format: functional, cell-based, Homo sapiens; conditions: Homo sapiens, NCI-H2405
Description: SANGER: Inhibition of human NCI-H2405 cell growth in a cell viability assay.

[30] = test system: PC-14; test: cells; format: functional, cell-based, Homo sapiens; conditions: Homo sapiens, PC-14;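 also: cell viability assay measuring inhibition of PC-14 cell growth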
Description: SANGER: Inhibition of human PC-14 cell growth in a cell viability assay.

[31] = test system: EFO-21; test: cells; format: functional, cell-based, Homo sapiens; conditions: Homo sapiens, EFO-21;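 also: growth inhibition of EFO-21 cells measured with a viability assay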
Description: SANGER: Inhibition of human EFO-21 cell growth in a cell viability assay.

[32] = test system: SBC-5; test: cells; format: functional, cell-based, Homo sapiens; conditions: Homo sapiens, SBC-5;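 also: cell viability assay read-out, IC50 is the concentration that inhibits growth of the cells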
Description: SANGER: Inhibition of human SBC-5 cell growth in a cell viability assay.

[33] = test system: T98G; test: cells; format: functional, cell-based, Homo sapiens; conditions: Homo sapiens, T98G;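 also: growth inhibition of T98G cells, read out by a cell viability assay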
Description: SANGER: Inhibition of human T98G cell growth in a cell viability assay.

[34] = test system: WSU-NHL; test: cells; format: functional, cell-based, Homo sapiens; conditions: Homo sapiens, WSU-NHL
Description: SANGER: Inhibition of human WSU-NHL cell growth in a cell viability assay.

[35] = test system: HT-3; test: cells; format: functional, cell-based, Homo sapiens; conditions: Homo sapiens, HT-3;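 also: growth inhibition measured with a cell viability readout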
Description: SANGER: Inhibition of human HT-3 cell growth in a cell viability assay.

[36] = test system: KU-19-19; test: cells; format: functional, cell-based, Homo sapiens; conditions: Homo sapiens, KU-19-19
Description: SANGER: Inhibition of human KU-19-19 cell growth in a cell viability assay.

[37] = test system: IST-SL2; test: cells; format: functional, cell-based, Homo sapiens; conditions: Homo sapiens, IST-SL2;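 also: growth inhibition of human IST-SL2 cells, read out by a cell viability assay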
Description: SANGER: Inhibition of human IST-SL2 cell growth in a cell viability assay.

[38] = test system: SiHa; test: cells; format: functional, cell-based, Homo sapiens; conditions: Homo sapiens, SiHa;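 also: Viability-based readout of growth inhibition in SiHa cells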
Description: SANGER: Inhibition of human SiHa cell growth in a cell viability assay.

[39] = test system: SF-295; test: cells; format: functional, cell-based, Homo sapiens; conditions: Homo sapiens, SF-295;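 also: growth inhibition of SF-295 cells, read out with a cell viability assay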
Description: SANGER: Inhibition of human SF295 cell growth in a cell viability assay.

[40] = test system: MEL-HO; test: cells; format: functional, cell-based, Homo sapiens; conditions: Homo sapiens, MEL-HO
Description: SANGER: Inhibition of human MEL-HO cell growth in a cell viability assay.

[41] = test system: FaDu; test: cells; format: functional, cell-based, Homo sapiens; conditions: Homo sapiens, FaDu;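 also: cell viability readout of growth inhibition in FaDu cells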
Description: SANGER: Inhibition of human FADU cell growth in a cell viability assay.

[42] = test system: MDA-MB-361; test: cells; format: functional, cell-based, Homo sapiens; conditions: Homo sapiens, MDA-MB-361
[43] = test system: AU565; test: cells; format: functional, cell-based, Homo sapiens; conditions: Homo sapiens, AU565;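 also: cell viability assay measuring growth inhibition of human AU565 cells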
Description: SANGER: Inhibition of human AU565 cell growth in a cell viability assay.

[44] = test system: LoVo; test: cells; format: functional, cell-based, Homo sapiens; conditions: Homo sapiens, LoVo
Description: SANGER: Inhibition of human LoVo cell growth in a cell viability assay.

[45] = test system: SW837; test: cells; format: functional, cell-based, Homo sapiens; conditions: Homo sapiens, SW837;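 also: growth inhibition of SW837 cells, determined with a cell viability assay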
Description: SANGER: Inhibition of human SW837 cell growth in a cell viability assay.

For `CCC/C=C/C=C/C(=O)O[C@H]1/C(=C/C(=O)OC)C[C@H]2C[C@H]([C@@H](C)O)OC(=O)C[C@H](O)C[C@@H]3C[C@H](OC(C)=O)C(C)(C)[C@](O)(C[C@@H]4C/C(=C/C(=O)OC)C[C@H](/C=C/C(C)(C)[C@]1(O)O2)O4)O3` [BRYOSTATIN 1], the pIC50 [1] was < 8.10, the pIC50 [2] was < 8.10 and the pIC50 [3] was < 8.10. The pIC50 [4] was < 8.10, the pIC50 [5] was < 8.10 and the pIC50 [6] was < 8.10. For the same compound, the pIC50 [7] was < 8.10, the pIC50 [8] was < 8.10 and the pIC50 [9] was < 8.10. The pIC50 [10] was < 8.10, the pIC50 [11] was < 8.10 and the pIC50 [12] was < 8.10. The pIC50 [13] was < 8.10, the pIC50 [14] was < 8.10 and the pIC50 [15] was < 8.10. The pIC50 [16] was < 8.10, the pIC50 [17] was < 8.10 and the pIC50 [18] was < 8.10. The pIC50 [19] was < 8.10, the pIC50 [20] was < 8.10 and the pIC50 [21] was < 8.10. For the same compound, the pIC50 [22] was < 8.10, the pIC50 [23] was < 8.10 and the pIC50 [24] was < 8.10. For the same compound, the pIC50 [25] was < 8.10, the pIC50 [26] was < 8.10 and the pIC50 [27] was < 8.10. For the same compound, the pIC50 [28] was < 8.10, the pIC50 [29] was < 8.10 and the pIC50 [30] was < 8.10. The pIC50 [31] was < 8.10, the pIC50 [32] was < 8.10 and the pIC50 [33] was < 8.10. For the same compound, the pIC50 [34] was < 8.10, the pIC50 [35] was < 8.10 and the pIC50 [36] was < 8.10. The pIC50 [37] was < 8.10, the pIC50 [38] was < 8.10 and the pIC50 [39] was < 8.10. For the same compound, the pIC50 [40] was < 8.10, the pIC50 [41] was < 8.10 and the pIC50 [42] was < 8.10. For the same compound, the pIC50 [43] was < 8.10, the pIC50 [44] was < 8.10 and the pIC50 [45] was < 8.10.
Work on `COc1cccc2c1C(=O)c1c(O)c3c(c(O)c1C2=O)C[C@@](O)(C(=O)CO)C[C@@H]3O[C@H]1C[C@H](N)[C@H](O)[C@H](C)O1` [DOXORUBICIN] yielded a pIC50 [1] of 7.34, a pIC50 [2] of 8.14 and a pIC50 [3] of 7.50. The pIC50 [4] was < 5.99, the pIC50 [5] was < 5.99 and the pIC50 [6] was 6.48. For the same compound, the pIC50 [7] was 7.55, the pIC50 [8] was 7.54 and the pIC50 [9] was 7.12. It also gave a pIC50 [10] of 6.11, a pIC50 [11] of 7.22 and a pIC50 [12] of 6.18. The pIC50 [13] was 6.43, the pIC50 [14] was 6.96 and the pIC50 [15] was 7.29. The pIC50 [16] was 6.30, the pIC50 [17] was 7.05 and the pIC50 [18] was 7.93. The pIC50 [19] was 7.17, the pIC50 [20] was 7.46 and the pIC50 [21] was 6.52. The pIC50 [22] was 6.58, the pIC50 [23] was 7.67 and the pIC50 [24] was 7.18. For the same compound, the pIC50 [25] was 6.99, the pIC50 [26] was 7.27 and the pIC50 [27] was < 5.99. The pIC50 [28] was < 5.99, the pIC50 [29] was 6.63 and the pIC50 [30] was 6.63. The pIC50 [31] was 6.44, the pIC50 [32] was 7.68 and the pIC50 [33] was < 5.99. The pIC50 [34] was 6.81, the pIC50 [35] was 6.88 and the pIC50 [36] was < 5.99. For the same compound, the pIC50 [37] was 7.13, the pIC50 [38] was < 5.99 and the pIC50 [39] was 7.31. The pIC50 [40] was 7.74, the pIC50 [41] was 6.99 and the pIC50 [42] was 6.53. It also gave a pIC50 [43] of 6.98, a pIC50 [44] of 7.09 and a pIC50 [45] of 6.93.
With `Nc1ccn([C@@H]2O[C@H](CO)[C@@H](O)C2(F)F)c(=O)n1` [GEMCITABINE] the pIC50 [1] was 7.74, the pIC50 [2] was > 8.40 and the pIC50 [3] was < 5.99. For the same compound, the pIC50 [4] was < 5.99, the pIC50 [5] was < 5.99 and the pIC50 [6] was < 5.99. For the same compound, the pIC50 [7] was 7.68, the pIC50 [8] was 8.94 and the pIC50 [9] was 7.49. The pIC50 [10] was 6.24, the pIC50 [11] was 8.43 and the pIC50 [12] was 7.14. For the same compound, the pIC50 [13] was < 5.99, the pIC50 [14] was > 8.40 and the pIC50 [15] was 8.03. The pIC50 [16] was < 5.99, the pIC50 [17] was < 5.99 and the pIC50 [18] was 6.49. It also gave a pIC50 [19] of 6.91, a pIC50 [20] of 8.56 and a pIC50 [21] of 6.53. The pIC50 [22] was 7.03, the pIC50 [23] was 7.02 and the pIC50 [24] was > 8.40. The pIC50 [25] was 7.20, the pIC50 [26] was 7.34 and the pIC50 [27] was < 5.99. The pIC50 [28] was < 5.99, the pIC50 [29] was 7.72 and the pIC50 [30] was 6.69. For the same compound, the pIC50 [31] was 7.27, the pIC50 [32] was > 8.40 and the pIC50 [33] was 6.27. The pIC50 [34] was 7.30, the pIC50 [35] was 6.70 and the pIC50 [36] was < 5.99. For the same compound, the pIC50 [37] was > 8.40, the pIC50 [38] was < 5.99 and the pIC50 [39] was 7.29. The pIC50 [40] was 8.29, the pIC50 [41] was 6.98 and the pIC50 [42] was 6.34. For the same compound, the pIC50 [43] was 7.66, the pIC50 [44] was 8.24 and the pIC50 [45] was 7.56.
